7 molecules from PubChem BioAssay (NCI) can be followed below.

Assay in all cases: NCI anticancer screen, dose series, 48 h
Test [1] deals with 786-0 renal.
Test [2] concerns COLO 205 colon.
Test [3] concerns DU-145 prostate.
Test [4] deals with IGROV1 ovarian.
For test [5], the system named is MDA-MB-435.
The test system of test [6] is NCI-H460 lung.
For test [7], the system named is SF-268 CNS.
Test [8] has as its system SN12C renal.
Test [9] has as its system T-47D breast.
In test [10] the test system is UACC-62 melanoma.

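Each compound was tested at five concentrations against cells in 96-well plates for 48 hours. Here, GI50 denotes the concentration required for 50% inhibition of growth. At the TGI there is no net growth.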

Take `COc1ccc(/C=C2\CCCC3=C2N=C2SC=NN2C3c2ccc(OC)c(OC)c2)cc1OC` (stereo not given): the GI50 in test [1] was 25.3 µM; in [2] it was 7.58 µM; in test [3] it was 23 µM; in test [4], 28.9 µM; in test [5], 3.51 µM; in [6] it was 22.4 µM. Also, the GI50 in [7] was 19.9 µM; in test [8], 18.2 µM; in test [9], 5.21 µM; in test [10] it was 4.21 µM. Also, the TGI in test [1] was above 100 µM; in [2] it was above 100 µM; in test [3], above 100 µM; in test [4], above 100 µM; in test [5], 42.8 µM; in [6], above 100 µM. The TGI in [7] was above 100 µM; in test [8], above 100 µM; in [9], above 100 µM; in test [10] it was 80 µM.
With `Nc1nn(C(=O)Nc2ccc(Cc3ccccc3)cc2)c2ccccc12`, the GI50 is 3.76 µM in test [1]; 13.4 µM in test [2]; 1.02 µM in test [3]; 6.98 µM in test [4]; 2.82 µM in test [5]; 0.409 µM in [6]. For the same molecule, the GI50 was 4.66 µM in [7], 12.9 µM in test [8], 1.55 µM in test [9] and 0.353 µM in test [10]. The TGI in test [1] was 26.2 µM; in [2] it was 37.7 µM; in [3] it was 28.3 µM; in test [4], 48.8 µM; in test [5], above 100 µM; in test [6], 13 µM. Further, the TGI in test [7] is 32.3 µM; in [8], 28 µM; in [9] it was above 100 µM; in test [10] it was above 100 µM.
As for `COc1ccc2oc(-c3ccc(Cl)cc3)c(N3CCN(C)CC3)c2c1`, the GI50 in [1] is 1.75 µM; in [2], 1.68 µM; in [3] it was 1.88 µM; in test [4] it was 1.05 µM; in test [5] it was 1.83 µM; in [6], 1.94 µM. In addition, the GI50 is 2.36 µM in [7], 2.52 µM in [8], 2.32 µM in test [9] and 1.73 µM in test [10]. The TGI in test [1] is 3.42 µM; in test [2], 3.62 µM; in test [3] it was 3.98 µM; in test [4], 2.69 µM; in [5], 4.06 µM; in test [6], 4.16 µM. In addition, the TGI was 5.61 µM in [7], 10.2 µM in test [8], 6.78 µM in [9] and 3.44 µM in test [10].
Turning to `CSc1ccc2c(c1)C(=O)c1c-2n(CCCN=[N+]=[N-])c(=O)c2cc([N+](=O)[O-])ccc12`, the GI50 was 1.65 µM in test [1]; above 23.7 µM in [2]; 1.73 µM in test [3]; 8.86 µM in [4]; 14.1 µM in test [5]; 0.322 µM in [6]. The GI50 in [7] was 1.98 µM; in test [8] it was 1.63 µM; in [9] it was 4.58 µM; in test [10], 0.683 µM. In addition, the TGI in test [1] is 14.6 µM; in test [2], above 100 µM; in test [3] it was above 100 µM; in test [4] it was above 100 µM; in test [5], above 100 µM; in [6], above 100 µM. The TGI in test [7] was above 100 µM; in test [8] it was above 100 µM; in test [9] it was above 100 µM; in test [10] it was above 88.7 µM.
As to `Cn1cc(C2=C(c3cccc(NCC(O)CO)c3)C(=O)NC2=O)c2cc(Cl)ccc21` (stereo not given), the GI50 in test [1] was 4.31 µM; in test [2], 2.74 µM; in [3] it was 5.58 µM; in test [4], 5.62 µM; in test [5], 5.9 µM; in [6], 5.45 µM. In addition, the GI50 in test [7] was 4.46 µM; in test [8], 4.62 µM; in [9], 4.29 µM; in test [10], 4.66 µM. The TGI in test [1] was 16.5 µM; in test [2], 6.17 µM; in test [3], above 19.3 µM; in test [4], 15.1 µM; in [5] it was above 20.6 µM; in [6], above 25 µM. Further, the TGI in test [7] turned out to be 10.5 µM; in [8], 16.5 µM; in test [9] it was 15 µM; in test [10], 11.6 µM.
Consider `O=C(Nc1cccc(-n2cc(-c3ccncc3)c(-c3ccc(O)c(Cl)c3)n2)c1)Nc1ccc(Cl)c(C(F)(F)F)c1`, for which the GI50 in test [1] was 2.08 µM; in test [2], 1.77 µM; in test [3], 2.54 µM; in test [4], 2.82 µM; in test [5] it was 1.98 µM; in test [6], 2.56 µM. For the same molecule, the GI50 is 2.46 µM in test [7], 2.99 µM in test [8], 2.07 µM in test [9] and 2.13 µM in test [10]. The TGI in [1] amounted to 8.18 µM; in [2], 3.32 µM; in test [3] it was 7.76 µM; in [4], 8.12 µM; in test [5], 4.88 µM; in test [6], 9.51 µM. For the same molecule, the TGI was found to be 8.1 µM in test [7], 13.4 µM in test [8], 6.83 µM in test [9] and 5.07 µM in [10].
Turning to `Cn1c2ccccc2c(=S)c2cc(NC(=O)CCCCC(=O)Nc3ccc4c(c3)c(=S)c3ccccc3n4C)ccc21`, the TGI in [1], in test [2], in [3], in test [4], in [5] and in [6] was above 100 µM in each case. Also, the TGI in [7], in [8], in test [9] and in test [10] was above 100 µM in each case.
